Laboratory results published in patent US20200369630A1, “HERBICIDALLY ACTIVE 3-PHENYL-5-TRIFLUOROMETHYLISOXAZOLINE-5-CARBOXAMIDES OF CYCLOPENTYLCARBOXYLIC ACIDS AND ESTERS” (Bayer Aktiengesellschaft, priority 2017, published 2020).

Columns and labels:
Experiment in all cases: Post-emergence herbicidal action
Format in all cases: in vivo
VERPE: Veronica persica = conditions: rated visually after about 3 weeks
Protocol: (§1) [table] Seeds of monocotyledonous and dicotyledonous weeds and crop plants are placed in sandy loam in plastic or wood-fiber pots, covered with soil and cultivated in a greenhouse under controlled growth conditions. 2 to 3 weeks after sowing, the test plants are treated at the one-leaf stage. The compounds of the invention, formulated in the form of wettable powders (WP) or as emulsion concentrates (EC), are then sprayed onto the green parts of the plants as aqueous suspension or emulsion with addition of 0.5% additive at a water application rate of […] (converted). After the test plants had been kept in the greenhouse under optimum growth conditions for about 3 weeks, the activity of the preparations is rated visually in comparison to untreated controls. For example, 100% activity=the plants have died, 0% activity=like control plants.

LOLRI: Lolium rigidum = conditions: rated visually after about 3 weeks
Protocol: as §1

[1] = system: AMARE: Amaranthus retroflexus; conditions: rated visually after about 3 weeks
Protocol: as §1

HORMU: Hordeum murinum = conditions: rated visually after about 3 weeks
Protocol: as §1

[2] = system: POLCO: Polygonum convolvulus; conditions: rated visually after about 3 weeks
Protocol: as §1

[3] = system: ALOMY: Alopecurus myosuroides; conditions: rated visually after about 3 weeks
Protocol: as §1

[4] = system: ECHCG: Echinochloa crus-galli; conditions: Table C2, post-emergence, dosage 320 (0.32 kg of active substance per hectare), rated visually after about 3 weeks
Protocol: as §1

AVEFA: Avena fatua = conditions: Table C2, post-emergence, dosage 320 (0.32 kg of active substance per hectare), rated visually after about 3 weeks
Protocol: as §1

STEME: Stellaria media = conditions: Table C2, post-emergence, dosage 320 (0.32 kg of active substance per hectare), rated visually after about 3 weeks
Protocol: as §1

[5] = Table C4, post-emergence, 320 g/ha
[6] = Table C2, post-emergence, dosage 320 (0.32 kg of active substance per hectare)

| Compound | Herbicidal action against [%] VERPE (VERPE: Veronica persica; [5]) [%] | Herbicidal action against [%] LOLRI (LOLRI: Lolium rigidum; [5]) [%] | Herbicidal action against [%] AMARE [1, 5] [%] | Herbicidal action against [%] HORMU (HORMU: Hordeum murinum; [5]) [%] | Herbicidal action against [%] POLCO [2, 5] [%] | Herbicidal action against [%] ALOMY [3, 5] [%] | Herbicidal action against [%] ECHCG [4] [%] | Herbicidal action against [%] AVEFA (AVEFA: Avena fatua) [%] | Herbicidal action against [%] VERPE (VERPE: Veronica persica; [6]) [%] | Herbicidal action against [%] LOLRI (LOLRI: Lolium rigidum; [6]) [%] | Herbicidal action against [%] AMARE [1, 6] [%] | Herbicidal action against [%] STEME (STEME: Stellaria media) [%] | Herbicidal action against [%] HORMU (HORMU: Hordeum murinum; [6]) [%] | Herbicidal action against [%] POLCO [2, 6] [%] | Herbicidal action against [%] ALOMY [3, 6] [%] |
| --- | --- | --- | --- | --- | --- | --- | --- | --- | --- | --- | --- | --- | --- | --- | --- |
| Cc1cc(Cl)cc(C2=NOC(C(=O)NC3CCC(C(=O)OCCCl)C3)(C(F)(F)F)C2)c1 (mixture of isomers) [Example I-838] | 80 | 100 | 80 | 90 | 100 | 100 |  |  |  |  |  |  |  |  |  |
| Cc1cc(Cl)cc(C2=NOC(C(=O)NC3CCC(C(=O)OCC(F)(F)F)C3)(C(F)(F)F)C2)c1 (mixture of isomers) [Example I-844] | 90 | 90 |  | 80 | 100 | 100 |  |  |  |  |  |  |  |  |  |
| CC(C)(C)OC(=O)[C@H]1CC[C@@H](NC(=O)C2(C(F)(F)F)CC(c3cc(F)cc(F)c3)=NO2)C1 (relative stereo) [Example I-85, tert-butyl cis-3-({[3-(3,5-difluorophenyl)-5-(trifluoromethyl)-4,5-dihydro-1,2-oxazol-5-yl]carbonyl}amino)cyclopentanecarboxylate] | 80 | 90 | 80 | 90 |  | 90 |  |  |  |  |  |  |  |  |  |
| O=C(O)[C@@H]1CC[C@H](NC(=O)[C@@]2(C(F)(F)F)CC(c3cc(F)cc(F)c3)=NO2)C1 [Example I-11, (1R,3S)-3-({[(5R)-3-(3,5-difluorophenyl)-5-(trifluoromethyl)-4,5-dihydro-1,2-oxazol-5-yl]carbonyl}amino)cyclopentanecarboxylic acid] |  |  |  |  |  |  | 80 | 90 | 80 | 90 | 80 | 90 | 80 | 80 | 80 |
| COC(=O)[C@H]1CC[C@H](NC(=O)C2(C(F)(F)F)CC(c3cc(F)cc(F)c3)=NO2)C1 (stereo partly drawn) [Example I-20, methyl (1S,3S)-3-({[3-(3,5-difluorophenyl)-5-(trifluoromethyl)-4,5-dihydro-1,2-oxazol-5-yl]carbonyl}amino)cyclopentanecarboxylate] | 90 | 90 | 80 | 90 |  | 80 |  |  |  |  |  |  |  |  |  |
| COC(=O)[C@H]1CC[C@H](NC(=O)[C@@]2(C(F)(F)F)CC(c3cc(F)cc(F)c3)=NO2)C1 [Example I-28] | 80 | 90 |  | 90 | 80 | 80 |  |  |  |  |  |  |  |  |  |
| CCOC(=O)[C@H]1CC[C@H](NC(=O)[C@@]2(C(F)(F)F)CC(c3cc(F)cc(F)c3)=NO2)C1 [Example I-42] |  |  |  |  |  |  | 80 | 90 | 80 | 90 | 80 | 90 | 90 | 80 | 80 |
| CCCOC(=O)[C@@H]1CC[C@H](NC(=O)[C@@]2(C(F)(F)F)CC(c3cc(F)cc(F)c3)=NO2)C1 [Example I-53] |  |  |  |  |  |  | 100 | 100 | 90 | 100 | 90 | 100 | 100 | 100 | 100 |
| CC(C)OC(=O)[C@@H]1CC[C@H](NC(=O)[C@@]2(C(F)(F)F)CC(c3cc(F)cc(F)c3)=NO2)C1 [Example I-67] |  |  |  |  |  |  | 90 | 100 | 90 | 100 | 90 | 100 | 100 | 90 | 100 |
